Source: ChEMBL document CHEMBL5465560, “Selectivity Literature for EUbOPEN Chemogenomic Library” (2024)

Experiments:
[1] = molecular target: Microtubule-associated serine/threonine-protein kinase 1 (Homo sapiens) (UniProt Q9Y2H9); test: Selectivity interaction (KinomeScan (DiscoverX)) EUB0000229b MAST1; details: at 10 µM
[2] = molecular target: Serine/threonine-protein kinase SIK3 (Homo sapiens) (UniProt Q9Y2K2); test: Selectivity interaction (KinomeScan (DiscoverX)) EUB0000595a SIK3; details: at 10 µM
Sequence of Serine/threonine-protein kinase SIK3 (Homo sapiens) (Q9Y2K2 whole entry, looked up): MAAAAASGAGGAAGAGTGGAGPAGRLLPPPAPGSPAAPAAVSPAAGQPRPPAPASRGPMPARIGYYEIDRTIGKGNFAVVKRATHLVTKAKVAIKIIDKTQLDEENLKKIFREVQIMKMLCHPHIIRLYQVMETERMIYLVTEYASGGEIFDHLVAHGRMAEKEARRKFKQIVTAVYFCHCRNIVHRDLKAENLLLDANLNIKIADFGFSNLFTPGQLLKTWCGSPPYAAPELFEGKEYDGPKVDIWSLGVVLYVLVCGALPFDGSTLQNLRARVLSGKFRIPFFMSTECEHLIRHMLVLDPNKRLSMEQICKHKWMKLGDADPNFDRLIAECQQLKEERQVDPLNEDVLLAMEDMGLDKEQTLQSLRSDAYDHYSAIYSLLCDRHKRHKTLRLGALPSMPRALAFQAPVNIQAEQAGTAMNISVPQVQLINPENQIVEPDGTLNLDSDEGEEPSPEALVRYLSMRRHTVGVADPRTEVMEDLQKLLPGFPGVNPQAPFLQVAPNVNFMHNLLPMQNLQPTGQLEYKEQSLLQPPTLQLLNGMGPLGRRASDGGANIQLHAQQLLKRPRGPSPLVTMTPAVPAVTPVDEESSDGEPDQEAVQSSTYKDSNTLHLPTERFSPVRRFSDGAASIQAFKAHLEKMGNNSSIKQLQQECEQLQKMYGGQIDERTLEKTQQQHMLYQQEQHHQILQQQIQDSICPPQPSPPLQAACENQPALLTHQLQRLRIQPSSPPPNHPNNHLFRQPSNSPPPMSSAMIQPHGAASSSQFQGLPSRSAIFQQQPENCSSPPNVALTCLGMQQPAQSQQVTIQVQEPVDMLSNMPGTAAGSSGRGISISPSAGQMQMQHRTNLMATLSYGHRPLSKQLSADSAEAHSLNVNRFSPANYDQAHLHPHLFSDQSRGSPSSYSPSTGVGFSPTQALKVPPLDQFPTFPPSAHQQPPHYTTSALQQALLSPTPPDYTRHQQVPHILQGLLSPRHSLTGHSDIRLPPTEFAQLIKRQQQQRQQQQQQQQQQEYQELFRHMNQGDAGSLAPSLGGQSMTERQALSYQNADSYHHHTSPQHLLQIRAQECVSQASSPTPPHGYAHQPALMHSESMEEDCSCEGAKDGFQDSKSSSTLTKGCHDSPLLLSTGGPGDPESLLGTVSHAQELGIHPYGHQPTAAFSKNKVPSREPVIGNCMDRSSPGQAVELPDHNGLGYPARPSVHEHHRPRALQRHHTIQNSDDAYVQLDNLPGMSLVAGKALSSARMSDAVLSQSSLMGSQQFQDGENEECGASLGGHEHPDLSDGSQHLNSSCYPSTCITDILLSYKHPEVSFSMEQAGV

[3] = molecular target: T1, SNF-related serine/threonine-protein kinase (Homo sapiens) (UniProt Q9NRH2); test: Selectivity interaction (KinomeScan (DiscoverX)) EUB0000595a SNRK; details: at 10 µM
T1 sequence (whole entry): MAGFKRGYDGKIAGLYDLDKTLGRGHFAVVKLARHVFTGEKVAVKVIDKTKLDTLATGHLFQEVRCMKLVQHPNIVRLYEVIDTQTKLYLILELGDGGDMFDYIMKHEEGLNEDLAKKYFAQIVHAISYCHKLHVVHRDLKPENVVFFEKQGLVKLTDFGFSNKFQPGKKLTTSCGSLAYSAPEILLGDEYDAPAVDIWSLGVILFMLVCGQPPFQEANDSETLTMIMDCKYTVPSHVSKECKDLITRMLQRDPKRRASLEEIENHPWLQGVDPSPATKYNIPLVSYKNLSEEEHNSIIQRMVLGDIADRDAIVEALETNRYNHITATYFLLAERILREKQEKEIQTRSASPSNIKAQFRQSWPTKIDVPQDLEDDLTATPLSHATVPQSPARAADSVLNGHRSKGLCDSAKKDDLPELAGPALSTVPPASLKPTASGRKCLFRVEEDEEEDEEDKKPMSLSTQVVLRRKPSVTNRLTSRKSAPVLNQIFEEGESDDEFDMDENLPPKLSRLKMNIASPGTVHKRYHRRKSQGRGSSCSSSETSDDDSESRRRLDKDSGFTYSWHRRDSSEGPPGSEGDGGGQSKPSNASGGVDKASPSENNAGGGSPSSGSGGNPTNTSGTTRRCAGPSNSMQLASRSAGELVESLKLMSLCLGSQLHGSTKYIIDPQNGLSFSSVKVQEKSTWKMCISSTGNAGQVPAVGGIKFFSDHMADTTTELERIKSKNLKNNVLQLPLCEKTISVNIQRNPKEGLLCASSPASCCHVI

[4] = molecular target: Dual specificity testis-specific protein kinase 1 (Homo sapiens) (UniProt Q15569); test: Selectivity interaction (LanthaScreen Eu Kinase Binding Assay) EUB0001632a TESK1; details: at 10 µM
Sequence of Dual specificity testis-specific protein kinase 1 (Homo sapiens) (Q15569 whole entry, looked up, canonical isoform): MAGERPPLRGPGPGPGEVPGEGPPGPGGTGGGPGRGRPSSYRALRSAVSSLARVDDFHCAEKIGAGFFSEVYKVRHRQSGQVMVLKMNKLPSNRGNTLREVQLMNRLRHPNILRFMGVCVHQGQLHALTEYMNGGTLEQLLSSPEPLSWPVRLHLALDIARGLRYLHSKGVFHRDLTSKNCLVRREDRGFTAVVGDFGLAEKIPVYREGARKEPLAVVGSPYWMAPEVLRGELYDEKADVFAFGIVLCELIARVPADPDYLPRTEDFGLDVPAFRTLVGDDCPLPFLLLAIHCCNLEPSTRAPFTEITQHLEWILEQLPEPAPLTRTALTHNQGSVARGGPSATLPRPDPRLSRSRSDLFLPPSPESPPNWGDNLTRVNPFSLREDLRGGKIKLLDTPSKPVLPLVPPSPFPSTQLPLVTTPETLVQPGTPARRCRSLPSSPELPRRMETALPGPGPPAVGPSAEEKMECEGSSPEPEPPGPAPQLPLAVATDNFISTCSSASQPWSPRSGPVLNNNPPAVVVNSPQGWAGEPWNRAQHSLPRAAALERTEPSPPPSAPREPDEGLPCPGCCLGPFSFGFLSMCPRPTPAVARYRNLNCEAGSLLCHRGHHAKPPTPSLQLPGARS

[5] = molecular target: T2, Phosphorylase b kinase gamma catalytic chain, liver/testis isoform (Homo sapiens) (UniProt P15735); test: Selectivity interaction (Kinase screening (Nanosyn)) EUB0000604a PHKG2
T2 sequence (whole entry): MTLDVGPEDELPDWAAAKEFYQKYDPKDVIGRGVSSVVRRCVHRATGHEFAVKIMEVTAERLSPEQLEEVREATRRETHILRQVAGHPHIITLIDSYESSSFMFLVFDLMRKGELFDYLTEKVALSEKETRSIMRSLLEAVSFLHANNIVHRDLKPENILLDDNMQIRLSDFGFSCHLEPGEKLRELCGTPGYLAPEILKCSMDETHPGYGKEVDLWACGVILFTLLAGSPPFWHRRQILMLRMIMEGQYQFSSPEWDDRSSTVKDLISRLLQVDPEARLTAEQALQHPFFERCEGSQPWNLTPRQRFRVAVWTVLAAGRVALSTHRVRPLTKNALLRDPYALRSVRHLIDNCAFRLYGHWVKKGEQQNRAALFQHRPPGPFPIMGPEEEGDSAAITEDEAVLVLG

[6] = molecular target: Death-associated protein kinase 1 (Homo sapiens, UniProt P53355); test: Selectivity interaction (Upstate Kinase Profiler service (Millipore)) EUB0000056c DAPK1; details: at 1 µM
[7] = molecular target: T3, Cytoplasmic tyrosine-protein kinase BMX (Homo sapiens) (UniProt P51813); test: Selectivity interaction (KinomeScan (DiscoverX)) EUB0001619a BMX; details: at 1 µM
T3 sequence (whole entry): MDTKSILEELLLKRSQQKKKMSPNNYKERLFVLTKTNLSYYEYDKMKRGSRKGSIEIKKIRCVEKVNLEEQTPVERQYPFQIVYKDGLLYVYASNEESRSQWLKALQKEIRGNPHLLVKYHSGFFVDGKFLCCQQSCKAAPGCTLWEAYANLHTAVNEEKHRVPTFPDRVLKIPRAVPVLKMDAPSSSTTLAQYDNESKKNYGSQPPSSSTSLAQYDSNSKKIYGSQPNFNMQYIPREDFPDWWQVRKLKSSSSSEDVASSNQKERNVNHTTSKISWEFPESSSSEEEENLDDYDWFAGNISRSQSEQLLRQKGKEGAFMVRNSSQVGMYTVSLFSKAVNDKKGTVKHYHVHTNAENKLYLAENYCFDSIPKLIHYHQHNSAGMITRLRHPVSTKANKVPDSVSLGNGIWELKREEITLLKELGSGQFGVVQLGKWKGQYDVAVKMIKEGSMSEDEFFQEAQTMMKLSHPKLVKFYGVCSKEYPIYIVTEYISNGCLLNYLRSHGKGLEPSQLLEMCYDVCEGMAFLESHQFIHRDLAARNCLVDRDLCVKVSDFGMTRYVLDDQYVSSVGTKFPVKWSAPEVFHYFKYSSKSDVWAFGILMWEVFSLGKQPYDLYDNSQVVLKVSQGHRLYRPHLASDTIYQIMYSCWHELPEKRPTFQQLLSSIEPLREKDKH

[8] = molecular target: T4, STE20-related kinase adapter protein alpha (Homo sapiens) (UniProt Q7RTN6); test: Selectivity interaction (ActivX KiNativ screen (ex vivo kinase selectivity in human PBMCs)) EUB0001619a STRADA; assay type: cell-based; details: PBMC, at 1 µM
T4 sequence (whole entry): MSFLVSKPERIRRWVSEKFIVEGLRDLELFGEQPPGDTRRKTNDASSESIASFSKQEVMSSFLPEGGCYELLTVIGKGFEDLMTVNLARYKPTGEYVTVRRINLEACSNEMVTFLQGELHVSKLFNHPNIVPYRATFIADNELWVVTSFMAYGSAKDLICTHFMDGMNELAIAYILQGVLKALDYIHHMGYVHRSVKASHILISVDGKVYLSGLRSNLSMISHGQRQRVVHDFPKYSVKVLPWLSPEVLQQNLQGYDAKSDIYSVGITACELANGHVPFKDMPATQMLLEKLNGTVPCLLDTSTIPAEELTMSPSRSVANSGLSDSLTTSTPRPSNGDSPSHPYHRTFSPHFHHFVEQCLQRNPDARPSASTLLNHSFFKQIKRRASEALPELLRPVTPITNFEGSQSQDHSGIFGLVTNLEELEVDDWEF

[9] = molecular target: Serine/threonine-protein kinase SIK1 (Homo sapiens) (UniProt P57059); test: Selectivity interaction (KinomeScan (DiscoverX)) EUB0000607a SIK1; details: at 10 µM
Sequence of Serine/threonine-protein kinase SIK1 (Homo sapiens) (P57059 whole entry): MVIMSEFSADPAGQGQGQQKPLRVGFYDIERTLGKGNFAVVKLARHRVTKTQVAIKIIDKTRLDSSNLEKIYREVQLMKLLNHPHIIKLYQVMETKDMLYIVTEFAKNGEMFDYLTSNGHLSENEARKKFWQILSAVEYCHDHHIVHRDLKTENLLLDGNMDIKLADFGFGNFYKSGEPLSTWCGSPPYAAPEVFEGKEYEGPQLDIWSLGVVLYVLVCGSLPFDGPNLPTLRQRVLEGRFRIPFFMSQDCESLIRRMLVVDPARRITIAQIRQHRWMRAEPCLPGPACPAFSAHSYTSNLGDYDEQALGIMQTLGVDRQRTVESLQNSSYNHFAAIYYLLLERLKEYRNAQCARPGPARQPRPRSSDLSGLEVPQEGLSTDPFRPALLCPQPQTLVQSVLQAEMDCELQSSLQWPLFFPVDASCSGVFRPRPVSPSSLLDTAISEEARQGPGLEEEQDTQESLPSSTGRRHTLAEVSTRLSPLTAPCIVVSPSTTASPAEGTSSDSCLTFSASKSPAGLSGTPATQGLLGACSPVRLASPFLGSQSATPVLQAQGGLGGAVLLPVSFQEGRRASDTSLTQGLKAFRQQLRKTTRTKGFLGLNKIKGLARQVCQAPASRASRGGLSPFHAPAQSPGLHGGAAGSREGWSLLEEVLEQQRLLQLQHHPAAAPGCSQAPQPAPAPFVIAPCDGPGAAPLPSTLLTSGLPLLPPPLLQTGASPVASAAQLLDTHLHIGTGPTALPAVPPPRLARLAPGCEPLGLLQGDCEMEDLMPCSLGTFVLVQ

[10] = molecular target: Calcium/calmodulin-dependent protein kinase type II subunit delta (Homo sapiens) (UniProt Q13557); test: Selectivity interaction (ActivX KiNativ screen (kinase selectivity in THP-1 cell lysates)) EUB0000639a CAMK2D; assay type: subcellular; details: lysate, at 0.01 µM
Sequence of Calcium/calmodulin-dependent protein kinase type II subunit delta (Homo sapiens) (Q13557 whole entry): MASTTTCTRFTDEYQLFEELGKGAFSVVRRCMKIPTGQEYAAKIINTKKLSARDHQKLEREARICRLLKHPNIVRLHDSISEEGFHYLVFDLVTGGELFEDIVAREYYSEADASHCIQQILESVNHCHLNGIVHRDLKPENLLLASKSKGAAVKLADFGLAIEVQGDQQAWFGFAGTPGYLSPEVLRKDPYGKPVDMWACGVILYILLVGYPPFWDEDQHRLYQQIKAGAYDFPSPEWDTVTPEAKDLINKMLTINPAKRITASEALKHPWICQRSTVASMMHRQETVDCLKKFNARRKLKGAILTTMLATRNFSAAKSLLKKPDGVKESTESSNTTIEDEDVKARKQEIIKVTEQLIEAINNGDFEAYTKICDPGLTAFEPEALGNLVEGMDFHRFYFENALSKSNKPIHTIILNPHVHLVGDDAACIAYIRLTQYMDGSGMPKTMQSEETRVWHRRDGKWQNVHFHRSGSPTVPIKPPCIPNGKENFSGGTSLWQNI

Sequence of Microtubule-associated serine/threonine-protein kinase 1 (Homo sapiens) (Q9Y2H9 whole entry, looked up): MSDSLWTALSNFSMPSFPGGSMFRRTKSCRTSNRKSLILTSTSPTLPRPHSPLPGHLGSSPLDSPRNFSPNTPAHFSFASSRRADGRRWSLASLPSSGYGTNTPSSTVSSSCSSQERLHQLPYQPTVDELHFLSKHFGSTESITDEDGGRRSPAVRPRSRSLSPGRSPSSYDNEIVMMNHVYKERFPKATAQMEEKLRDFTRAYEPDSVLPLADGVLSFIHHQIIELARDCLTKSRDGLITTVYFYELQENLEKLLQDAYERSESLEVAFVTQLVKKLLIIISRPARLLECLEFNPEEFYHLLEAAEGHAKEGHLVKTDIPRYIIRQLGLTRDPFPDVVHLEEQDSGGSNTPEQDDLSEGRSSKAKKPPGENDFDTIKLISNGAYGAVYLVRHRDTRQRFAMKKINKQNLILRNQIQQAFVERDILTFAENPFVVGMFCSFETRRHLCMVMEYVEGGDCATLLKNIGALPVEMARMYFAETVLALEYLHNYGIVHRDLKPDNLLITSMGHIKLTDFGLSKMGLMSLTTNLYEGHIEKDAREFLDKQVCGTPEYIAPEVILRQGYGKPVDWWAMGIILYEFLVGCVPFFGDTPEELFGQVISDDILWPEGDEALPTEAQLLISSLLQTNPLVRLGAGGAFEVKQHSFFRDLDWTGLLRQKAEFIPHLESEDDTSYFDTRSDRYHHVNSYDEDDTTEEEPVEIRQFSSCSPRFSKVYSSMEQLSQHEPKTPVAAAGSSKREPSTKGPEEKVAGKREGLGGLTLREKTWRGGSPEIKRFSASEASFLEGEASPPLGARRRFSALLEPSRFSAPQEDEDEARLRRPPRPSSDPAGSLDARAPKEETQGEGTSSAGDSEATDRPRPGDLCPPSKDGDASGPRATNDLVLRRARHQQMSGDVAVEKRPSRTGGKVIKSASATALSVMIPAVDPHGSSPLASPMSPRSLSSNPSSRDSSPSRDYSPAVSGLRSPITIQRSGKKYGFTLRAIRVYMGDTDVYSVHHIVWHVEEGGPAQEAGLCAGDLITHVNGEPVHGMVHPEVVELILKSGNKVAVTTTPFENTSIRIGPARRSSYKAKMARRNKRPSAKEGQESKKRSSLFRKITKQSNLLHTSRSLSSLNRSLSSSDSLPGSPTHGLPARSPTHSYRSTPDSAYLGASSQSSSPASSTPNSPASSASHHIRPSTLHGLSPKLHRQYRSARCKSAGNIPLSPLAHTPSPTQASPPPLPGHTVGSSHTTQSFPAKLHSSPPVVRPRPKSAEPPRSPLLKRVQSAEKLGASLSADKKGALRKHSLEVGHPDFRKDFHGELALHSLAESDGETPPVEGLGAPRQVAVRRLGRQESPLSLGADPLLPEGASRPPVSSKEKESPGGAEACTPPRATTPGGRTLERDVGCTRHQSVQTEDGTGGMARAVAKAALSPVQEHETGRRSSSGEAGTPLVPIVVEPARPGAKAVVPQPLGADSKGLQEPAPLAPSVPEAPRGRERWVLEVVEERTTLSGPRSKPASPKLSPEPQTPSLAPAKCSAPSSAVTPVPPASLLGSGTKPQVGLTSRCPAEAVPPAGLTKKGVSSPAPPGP

COc1cc(N(C)c2ccnc3ccc(C(F)(F)F)cc23)cc(OC)c1OC
% binding [1]: 85%

COCC(=O)NC/C=C/c1ccc2ncnc(Nc3ccc(Oc4ccc(C)nc4)c(C)c3)c2c1 [CP-724714]
% of control [2]: 76% | % of control [3]: 71%

Cn1cc(-n2cnc3c(NCc4nc5cc(Cl)c(Cl)cc5[nH]4)nc(N4CCOCC4)nc32)cn1
% of inhibition [4]: -5.55%

Cc1cnc(Nc2ccc(F)cc2Cl)nc1-c1c[nH]c(C(=O)N[C@H](CO)c2cccc(Cl)c2)c1
% of inhibition [5]: 4%

Cc1ccc(-c2ccc3c(ccc4sc5c(c43)NC[C@@H](C)NC5=O)n2)cn1
% of inhibition [6]: 11%

N#Cc1cccc(-c2c[nH]c3ncnc(N4CCOCC4)c23)c1
% of control [7]: 97% | % of inhibition [8]: 1%

CNC(=O)Nc1ccc(-c2nc(N3CC4CCC(C3)O4)c3cnn(C4CCC5(CC4)OCCO5)c3n2)cc1
% of control [9]: 86%

CC[C@@H]1[C@H](F)C(=O)N[C@@H]1COc1nccc2cc(C(N)=O)c(OC)cc12 [ZIMLOVISERTIB]
% of inhibition [10]: 3.3%
